According to patent publication US7435721B2, “Transport peptides such as C-terminal Erns peptide and analogues thereof” (Pepscan Systems B.V., priority 2000, dated 2008):
Values after ≈ are worked out from the molar mass of the structure shown.

Legend:
[1] = tested on: guinea pig erythrocytes; assay: Hemolytic assay, guinea pig erythrocytes; type: cell-based; conditions: 1% v/v, one hour at 37° C.
Description: Hemolytic assay. Hemolytic activity of various peptide concentrations was determined by incubation with human, guinea pig or sheep erythrocyte suspensions (final erythrocyte concentration, 1% v/v) for one hour at 37° C. After cooling and centrifugation, the optical density of the supernatants were measured at 540 nm. Peptide concentrations causing 50% hemolysis (EC50) were derived from the dose-response curves.

[2] = tested on: Escherichia coli ATCC 25922; assay: Antimicrobial assay (MIC), E. coli; type: cell-based; conditions: overnight at 37° C.
Description: Antimicrobial assay. Two bacterial strains (Escherichia coli ATCC 25922 and Enterococcus faecalis ATCC 29212) were inoculated on heart infusion agar with 5% sheep blood and incubated aerobically overnight at 37° C. From the pure cultures, suspensions were made in saline to a density of 0.5 McFarland. These suspensions were diluted ten-fold in Mueller Hinton II broth, resulting in a final inoculum of approximately 10^7 cfu/ml.
Standard 96-well microtiter trays were filled with 100 ill of two-fold dilutions of peptide in physiologic salt solution in each well, resulting in the following concentration range: 4000, 2000, 1000, 500, 250, 125, 62.25, 31.63, 15.82, 7.96 and 0 μg/ml. The trays in column 12 were filled with 200 μl MH II broth (negative control).
Columns 1-11 of the microtiter trays were filled with 100 μl of the final inoculum of the bacterial suspensions, thus diluting the concentrations of the peptide two fold, resulting in the following peptide concentration range in the wells: 2000, 1000, 500, 250, 125, 62.25, 31.63, 15.82, 7.96, 3.98 and 0 μg/ml. In rows B, C and D, 100 μl of the final inoculum of E. coli and, in rows E, F and G, 100 μl of the final inoculum of E. faecalis was pipetted. The final bacterial concentration was approximately 5×10^5 cfu/well. All trays were sealed and incubated overnight at 37° C. After incubation, the microtiter trays were inspected visually for bacterial growth and the absorbance of the cultures at 630 nm (A630) was determined with an ELISA-reader. […] The experiment was performed independently in triplicate. The test was repeated again in triplicate after two days with the final peptide concentration range in the wells: 5000, 2500, 1250, 625, 312.5, 156.25, 78.12, 39.06, 19.58, 9.79, 4.88, 2.44 and 1.22 μg/ml.

Row | Structure (SMILES) | Hemolysis (peptide concentration causing 50% hemolysis) [1] [mg/mL] | MIC (minimal inhibitory concentration needed to inhibit bacterial growth) [2] [µg/mL]
1 | CC[C@H](C)[C@H](NC(=O)[C@H](CCCNC(=N)N)NC(=O)[C@H](CC(C)C)NC(=O)[C@H](CCC(N)=O)NC(=O)[C@H](CCCNC(=N)N)NC(=O)CNC(=O)[C@H](CC(C)C)NC(=O)[C@H](Cc1c[nH]c2ccccc12)NC(=O)[C@H](CO)NC(=O)[C@@H](NC(=O)[C@@H](NC(=O)[C@H](CCCNC(=N)N)NC(=O)[C@H](C)NC(=O)[C@H](C)NC(=O)CNC(=O)[C@H](CCC(N)=O)NC(=O)[C@H](CCCNC(=N)N)NC(=O)[C@H](C)NC(=O)[C@H](CC(N)=O)NC(=O)[C@H](CCC(=O)O)NC(=O)[C@@H](NC(=O)[C@@H](NC(=O)[C@H](CC(N)=O)NC(=O)[C@@H](NC(=O)[C@H](CCSC)NC(=O)CNC(=O)[C@H](CC(=O)O)NC(=O)[C@H](CC(C)C)NC(=O)[C@H](CC(C)C)NC(=O)[C@H](Cc1ccc(O)cc1)NC(=O)CCCC[C@@H]1SC[C@@H]2NC(=O)N[C@@H]21)[C@@H](C)O)[C@@H](C)O)[C@@H](C)CC)C(C)C)[C@@H](C)O)C(=O)N[C@@H](C)C(=O)NCC(=O)N[C@@H](CCCCN)C(=O)N[C@@H](CCCNC(=N)N)C(=O)N[C@@H](CC(C)C)C(=O)N[C@@H](CCC(=O)O)C(=O)NCC(=O)N[C@@H](CCCNC(=N)N)C(=O)N[C@@H](CO)C(=O)N[C@@H](CCCCN)C(N)=O [181-220] | 0.09 | 51 (≈ 10.8 µM)
2 | CC[C@H](C)[C@H](NC(=O)[C@H](CCCNC(=N)N)NC(=O)[C@H](CC(C)C)NC(=O)[C@H](CCC(N)=O)NC(=O)[C@H](CCCNC(=N)N)NC(=O)CNC(=O)[C@H](CC(C)C)NC(=O)[C@H](Cc1c[nH]c2ccccc12)NC(=O)[C@H](CO)NC(=O)[C@@H](NC(=O)[C@@H](NC(=O)[C@H](CCCNC(=N)N)NC(=O)[C@H](C)NC(=O)[C@H](C)NC(=O)CNC(=O)[C@H](CCC(N)=O)NC(=O)[C@H](CCCNC(=N)N)NC(=O)[C@H](C)NC(=O)[C@H](CC(N)=O)NC(=O)[C@H](CCC(=O)O)NC(=O)[C@@H](NC(=O)[C@@H](NC(=O)[C@H](CC(N)=O)NC(=O)[C@@H](NC(=O)[C@H](CCSC)NC(=O)CNC(=O)[C@H](CC(=O)O)NC(=O)CCCC[C@@H]1SC[C@@H]2NC(=O)N[C@@H]21)[C@@H](C)O)[C@@H](C)O)[C@@H](C)CC)C(C)C)[C@@H](C)O)C(=O)N[C@@H](C)C(=O)NCC(=O)N[C@@H](CCCCN)C(=O)N[C@@H](CCCNC(=N)N)C(=O)N[C@@H](CC(C)C)C(=O)N[C@@H](CCC(=O)O)C(=O)NCC(=O)N[C@@H](CCCNC(=N)N)C(=O)N[C@@H](CO)C(=O)N[C@@H](CCCCN)C(=O)N[C@H](C(=O)N[C@@H](Cc1c[nH]c2ccccc12)C(=O)N[C@@H](Cc1ccccc1)C(N)=O)[C@@H](C)O [184-223] | 0.15 | 46 (≈ 9.67 µM)
3 | CC[C@H](C)[C@H](NC(=O)[C@H](CCCNC(=N)N)NC(=O)[C@H](CC(C)C)NC(=O)[C@H](CCC(N)=O)NC(=O)[C@H](CCCNC(=N)N)NC(=O)CNC(=O)[C@H](CC(C)C)NC(=O)[C@H](Cc1c[nH]c2ccccc12)NC(=O)[C@H](CO)NC(=O)[C@@H](NC(=O)[C@@H](NC(=O)[C@H](CCCNC(=N)N)NC(=O)[C@H](C)NC(=O)[C@H](C)NC(=O)CNC(=O)[C@H](CCC(N)=O)NC(=O)[C@H](CCCNC(=N)N)NC(=O)[C@H](C)NC(=O)[C@H](CC(N)=O)NC(=O)[C@H](CCC(=O)O)NC(=O)CCCC[C@@H]1SC[C@@H]2NC(=O)N[C@@H]21)C(C)C)[C@@H](C)O)C(=O)N[C@@H](C)C(N)=O [191-211] | >0.33 | 395 (≈ 153 µM)
4 | CC[C@H](C)[C@H](NC(=O)[C@H](CCCNC(=N)N)NC(=O)[C@H](CC(C)C)NC(=O)[C@H](CCC(N)=O)NC(=O)[C@H](CCCNC(=N)N)NC(=O)CNC(=O)[C@H](CC(C)C)NC(=O)[C@H](Cc1c[nH]c2ccccc12)NC(=O)[C@H](CO)NC(=O)[C@@H](NC(=O)[C@@H](NC(=O)[C@H](CCCNC(=N)N)NC(=O)[C@H](C)NC(=O)[C@H](C)NC(=O)CNC(=O)[C@H](CCC(N)=O)NC(=O)[C@H](CCCNC(=N)N)NC(=O)[C@H](C)NC(=O)[C@H](CC(N)=O)NC(=O)[C@H](CCC(=O)O)NC(=O)CCCC[C@@H]1SC[C@@H]2NC(=O)N[C@@H]21)C(C)C)[C@@H](C)O)C(=O)N[C@@H](C)C(=O)NCC(=O)N[C@@H](CCCCN)C(=O)N[C@@H](CCCNC(=N)N)C(=O)N[C@@H](CC(C)C)C(=O)N[C@@H](CCC(=O)O)C(N)=O [191-216] | >0.33 | 95 (≈ 30 µM)
5 | CC[C@H](C)[C@H](NC(=O)[C@H](CCCNC(=N)N)NC(=O)[C@H](CC(C)C)NC(=O)[C@H](CCC(N)=O)NC(=O)[C@H](CCCNC(=N)N)NC(=O)CNC(=O)[C@H](CC(C)C)NC(=O)[C@H](Cc1c[nH]c2ccccc12)NC(=O)[C@H](CO)NC(=O)[C@@H](NC(=O)[C@@H](NC(=O)[C@H](CCCNC(=N)N)NC(=O)[C@H](C)NC(=O)[C@H](C)NC(=O)CNC(=O)[C@H](CCC(N)=O)NC(=O)[C@H](CCCNC(=N)N)NC(=O)[C@H](C)NC(=O)[C@H](CC(N)=O)NC(=O)[C@H](CCC(=O)O)NC(=O)CCCC[C@@H]1SC[C@@H]2NC(=O)N[C@@H]21)C(C)C)[C@@H](C)O)C(=O)N[C@@H](C)C(=O)NCC(=O)N[C@@H](CCCCN)C(=O)N[C@@H](CCCNC(=N)N)C(=O)N[C@@H](CC(C)C)C(=O)N[C@@H](CCC(=O)O)C(=O)NCC(=O)N[C@@H](CCCNC(=N)N)C(=O)N[C@@H](CO)C(=O)N[C@@H](CCCCN)C(N)=O [191-220] | 0.31 | 47 (≈ 13.1 µM)
6 | CC[C@H](C)[C@H](NC(=O)[C@H](CCCNC(=N)N)NC(=O)[C@H](CC(C)C)NC(=O)[C@H](CCC(N)=O)NC(=O)[C@H](CCCNC(=N)N)NC(=O)CNC(=O)[C@H](CC(C)C)NC(=O)[C@H](Cc1c[nH]c2ccccc12)NC(=O)[C@H](CO)NC(=O)[C@@H](NC(=O)[C@@H](NC(=O)[C@H](CCCNC(=N)N)NC(=O)[C@H](C)NC(=O)[C@H](C)NC(=O)CNC(=O)[C@H](CCC(N)=O)NC(=O)[C@H](CCCNC(=N)N)NC(=O)[C@H](C)NC(=O)[C@H](CC(N)=O)NC(=O)[C@H](CCC(=O)O)NC(=O)CCCC[C@@H]1SC[C@@H]2NC(=O)N[C@@H]21)C(C)C)[C@@H](C)O)C(=O)N[C@@H](C)C(=O)NCC(=O)N[C@@H](CCCCN)C(=O)N[C@@H](CCCNC(=N)N)C(=O)N[C@@H](CC(C)C)C(=O)N[C@@H](CCC(=O)O)C(=O)NCC(=O)N[C@@H](CCCNC(=N)N)C(=O)N[C@@H](CO)C(=O)N[C@@H](CCCCN)C(=O)N[C@H](C(=O)N[C@@H](Cc1c[nH]c2ccccc12)C(=O)N[C@@H](Cc1ccccc1)C(N)=O)[C@@H](C)O [191-223] | 0.15 | 41 (≈ 10.2 µM)
